Reference: publication PMC11189555, “Aryl amino acetamides prevent Plasmodium falciparum ring development via targeting the lipid-transfer protein PfSTART1” (Nature Communications, 2024)
pEC50: −log10 of the molar value.

Columns and labels:
[1] = tested on: PopD-D7 M-833 resistant clone (PfSTART1 N309K); assay: Growth inhibition assay (72 h, LDH activity); assay type: cell-based, Plasmodium falciparum; details: for pEC50: Plasmodium falciparum, 72 h, read-out: EC50; for pEC50 / Fold change compared to 3D7: Supplementary Table 1; for pEC50 / resistance of the line compared with 3D7: PopD-D7 (N309K); for resistance of the line compared with 3D7: Fig 4B; for Fold change compared to 3D7: EC50 on PopD-D7 vs 3D7
Protocol: The drug was then removed, and parasites were allowed to recover. Another cycle of drug treatment (3 μM M-833) was then resumed. The resistant lines were cloned out by limiting dilution (diluting the culture into a 96-well plate to achieve an average of ~0.3 parasites per well), prior to growth inhibition assays and genomic DNA (gDNA) extraction (DNeasy Blood and Tissue kit (Qiagen)[18].
Parasite growth assays with inhibitory compounds were performed as per[11] and are fully described in the Supplementary Information. […]
Growth inhibition assays. Synchronised ring-stage parasites (0.3-0.6% parasitemia, 2% haematocrit) were grown for 72 h in a serial-dilution of the compound under […]
and compound 4. Note that M-833 was first purchased from MolPort (MolPort -002-267-916) then made in-house at WEHI: the differences observed in EC50s across experiments are attributed to the different batches of M -833. For some experiments, 0, 0.25 or 2.5 mM of glucosamine (GlcN) was also added. Experiments were set up in technical duplicates or triplicates. Following a freeze -thaw cycle, lactate dehydrogenase (LDH) activity was assessed as an indicator of parasite growt h 5. 30 μL of parasite culture was incubated for 30 min in the dark with 75 μL Malstat mixture (0.1 M Tris pH 9.0, 20 g/L lactic acid, pH 7.5, 0.2% Triton-X100, 0.5 g/L acetylpyridine adenine dinucleotide (APAD, Sigma), 200 μg/mL nitroblue tetrazolium (NBT; Sigma), 1 μg/mL phenozine ethosulfate (PES; Sigma)). Absorbance was then measured at 650 nm, transformed using the formula below, plotted against the logarithm of the concentrations, and a non-linear regression (log(inhibitor) vs. response, variable slope) was calculated using GraphPad Prism to assess the half-inhibitory […]
Growth inhibition % = (1 − average(sample)− average(uRBC)) ∗ 100 […]
The DMSO samples were also used to assess growth of parasite in the presence of 0.25 and 2.5 mM GlcN (normalised by DMSO in 0 mM GlcN). […]

[2] = molecular target: T1, recombinant PfSTART1(WT) (I149-V394) (Plasmodium falciparum, UniProt Q8I298); assay: Isothermal titration calorimetry; assay type: binding; details: ITC
T1 construct: START domain alone (I149-V394 from PF3D7_0104200); 8xHis tag (N); TEV protease cleavage site (N); made in house; host or cells: Sf21 insect cells (baculovirus)
Excerpt: Codon optimised (Spodoptera frugiperda, Sf) START domain alone (I149-V394 from PF3D7_0104200) was synthesised by Integrated DNA Technologies and cloned into a modified baculovirus transfer vector (pAcGP67-A) with a N-terminal GP67-signal sequence, 8xHis tag, and TEV protease cleavage site. Recombinant baculovirus was generated via the flashBACTM Baculovirus Expression System using Sf21 cells (Life Technologies), amplified to reach a third passage viral stock, and 1.5% used to infect Sf21 for protein expression. After incubation for three days at 28 °C, media containing secreted protein was harvested by centrifugation and supplemented with 50 mM Tris pH 7.5, 20 mM MgCl2, 100 mM NaCl, and 10-20 mM imidazole. The supplemented protein sample was purified by nickel affinity chromatography (HisTrap Excel 5 mL, Cytiva), and eluted with 20 mM Tris pH 7.5, 500 mM NaCl, 300-500 mM imidazole. Eluted fractions were further purified using size-exclusion chromatography (Superdex S75 16/600 or Superdex 10/300, Cytiva) with the column pre-equilibrated with 20 mM HEPES pH 7.5, 150 mM NaCl, and peak-containing fractions concentrated and stored at -80 °C until required. If required, prior to ITC, a second size-exclusion chromatography step was performed to remove soluble aggregates.
ITC experiments were performed on a MicroCal PEAQ-ITC calorimeter at 25 °C, with a stirring speed of 750 rpm and a reference power of 5 μcal/sec. 500 μM M-833 series inhibitor solutions were diluted to 10 μM in 50 mM NaPO4^-3 (pH 7.4), 150 mM NaCl with a final DMSO concentration of 2% (v/v) (cell sample). PfSTART1 protein was dialysed extensively against 50 mM NaPO4^-3 (pH 7.4), 150 mM NaCl, before diluting to 90 μM in the same buffer with 2% (v/v) DMSO (syringe sample). The first injection was 0.4 μL over a 0.8 s duration, and the remaining 19 injections were 2 μL of 4 s duration, with 150 s injection spacing. Data were collected and analysed using the PEAQ-ITC software (MicroCal) and fit by a single site binding model. A fitted offset (constant control heat) was also applied to the integrated heat.

T1 sequence (Q8I298 entry or part of it): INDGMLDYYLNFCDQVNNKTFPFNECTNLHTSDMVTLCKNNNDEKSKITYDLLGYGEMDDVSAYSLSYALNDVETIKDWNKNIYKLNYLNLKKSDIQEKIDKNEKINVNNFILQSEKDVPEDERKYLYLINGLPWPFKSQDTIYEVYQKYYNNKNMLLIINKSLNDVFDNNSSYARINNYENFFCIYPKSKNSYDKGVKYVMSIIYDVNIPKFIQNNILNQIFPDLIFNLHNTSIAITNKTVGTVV

## CC(C)(Oc1ccc(Cl)c(S(=O)(=O)N2CCOCC2)c1)C(=O)Nc1ccc(F)c(Cl)c1 [compound 3]
[1]
  pEC50: 5.85
  resistance of the line compared with 3D7: highly resistant
  Fold change compared to 3D7: 88 fold
[1]; PopD-D7, 3.04832 nM, biological replicate 1
  (av-uRBC) / (DMSO-uRBC) x100: 117.893
[1]; PopD-D7, 3.04832 nM, biological replicate 2
  (av-uRBC) / (DMSO-uRBC) x100: 107.059
[1]; PopD-D7, 3.04832 nM, biological replicate 3
  (av-uRBC) / (DMSO-uRBC) x100: 122.96
[1]; PopD-D7, 9.14495 nM, biological replicate 1
  (av-uRBC) / (DMSO-uRBC) x100: 119.508
[1]; PopD-D7, 9.14495 nM, biological replicate 2
  (av-uRBC) / (DMSO-uRBC) x100: 110.415
[1]; PopD-D7, 9.14495 nM, biological replicate 3
  (av-uRBC) / (DMSO-uRBC) x100: 124.421
[1]; PopD-D7, 27.4348 nM, biological replicate 1
  (av-uRBC) / (DMSO-uRBC) x100: 119.539
[1]; PopD-D7, 27.4348 nM, biological replicate 2
  (av-uRBC) / (DMSO-uRBC) x100: 110.363
[1]; PopD-D7, 27.4348 nM, biological replicate 3
  (av-uRBC) / (DMSO-uRBC) x100: 140.932
[1]; PopD-D7, 82.3045 nM, biological replicate 1
  (av-uRBC) / (DMSO-uRBC) x100: 115.279
[1]; PopD-D7, 82.3045 nM, biological replicate 2
  (av-uRBC) / (DMSO-uRBC) x100: 110.433
[1]; PopD-D7, 82.3045 nM, biological replicate 3
  (av-uRBC) / (DMSO-uRBC) x100: 132.525
[1]; PopD-D7, 246.914 nM, biological replicate 1
  (av-uRBC) / (DMSO-uRBC) x100: 110.69
[1]; PopD-D7, 246.914 nM, biological replicate 2
  (av-uRBC) / (DMSO-uRBC) x100: 106.686
[1]; PopD-D7, 246.914 nM, biological replicate 3
  (av-uRBC) / (DMSO-uRBC) x100: 118.688
[1]; PopD-D7, 740.741 nM, biological replicate 1
  (av-uRBC) / (DMSO-uRBC) x100: 93.2195
[1]; PopD-D7, 740.741 nM, biological replicate 2
  (av-uRBC) / (DMSO-uRBC) x100: 100.295
[1]; PopD-D7, 740.741 nM, biological replicate 3
  (av-uRBC) / (DMSO-uRBC) x100: 70.3418
[1]; PopD-D7, 2222.22 nM, biological replicate 1
  (av-uRBC) / (DMSO-uRBC) x100: 51.7543
[1]; PopD-D7, 2222.22 nM, biological replicate 2
  (av-uRBC) / (DMSO-uRBC) x100: 59.804
[1]; PopD-D7, 2222.22 nM, biological replicate 3
  (av-uRBC) / (DMSO-uRBC) x100: 18.6053
[1]; PopD-D7, 6666.67 nM, biological replicate 1
  (av-uRBC) / (DMSO-uRBC) x100: 13.8697
[1]; PopD-D7, 6666.67 nM, biological replicate 2
  (av-uRBC) / (DMSO-uRBC) x100: 12.8436
[1]; PopD-D7, 6666.67 nM, biological replicate 3
  (av-uRBC) / (DMSO-uRBC) x100: 12.5413
[1]; PopD-D7, 20000 nM, biological replicate 1
  (av-uRBC) / (DMSO-uRBC) x100: 8.262
[1]; PopD-D7, 20000 nM, biological replicate 2
  (av-uRBC) / (DMSO-uRBC) x100: 6.955
[1]; PopD-D7, 20000 nM, biological replicate 3
  (av-uRBC) / (DMSO-uRBC) x100: 7.3043

## CN(C(=O)C(C)(C)Nc1ccc(Cl)c(S(=O)(=O)N2CCOCC2)c1)c1ccc(F)c(Cl)c1 [compound 4]
[1]
  pEC50: 4.80
  resistance of the line compared with 3D7: No change in EC50
  Fold change compared to 3D7: 1.6 fold
[1]; PopD-D7, 0.00152416 uM, biological replicate 3
  sample/DMSO: -12.3682
[1]; PopD-D7, 0.00304832 uM, biological replicate 1
  sample/DMSO: -15.0464
[1]; PopD-D7, 0.00457247 uM, biological replicate 3
  sample/DMSO: -16.5856
[1]; PopD-D7, 0.00914495 uM, biological replicate 1
  sample/DMSO: -23.9863
[1]; PopD-D7, 0.0137174 uM, biological replicate 3
  sample/DMSO: -19.1403
[1]; PopD-D7, 0.0274348 uM, biological replicate 1
  sample/DMSO: -36.3947
[1]; PopD-D7, 0.0411523 uM, biological replicate 3
  sample/DMSO: -26.0746
[1]; PopD-D7, 0.078125 uM, biological replicate 2
  sample/DMSO: -26.6126
[1]; PopD-D7, 0.0823045 uM, biological replicate 1
  sample/DMSO: -40.9868
[1]; PopD-D7, 0.123457 uM, biological replicate 3
  sample/DMSO: -30.0892
[1]; PopD-D7, 0.15625 uM, biological replicate 2
  sample/DMSO: -24.0527
[1]; PopD-D7, 0.246914 uM, biological replicate 1
  sample/DMSO: -42.7943
[1]; PopD-D7, 0.3125 uM, biological replicate 2
  sample/DMSO: -25.1299
[1]; PopD-D7, 0.37037 uM, biological replicate 3
  sample/DMSO: -34.7932
[1]; PopD-D7, 0.625 uM, biological replicate 2
  sample/DMSO: -6.501
[1]; PopD-D7, 0.740741 uM, biological replicate 1
  sample/DMSO: -38.9839
[1]; PopD-D7, 1.11111 uM, biological replicate 3
  sample/DMSO: -37.8751
[1]; PopD-D7, 1.25 uM, biological replicate 2
  sample/DMSO: 3.536
[1]; PopD-D7, 2.22222 uM, biological replicate 1
  sample/DMSO: -23.9863
[1]; PopD-D7, 2.5 uM, biological replicate 2
  sample/DMSO: 14.2567
[1]; PopD-D7, 3.33333 uM, biological replicate 3
  sample/DMSO: -28.5888
[1]; PopD-D7, 5 uM, biological replicate 2
  sample/DMSO: 26.676
[1]; PopD-D7, 6.66667 uM, biological replicate 1
  sample/DMSO: 9.624
[1]; PopD-D7, 10 uM, biological replicate 2
  sample/DMSO: 49.8923
[1]; PopD-D7, 10 uM, biological replicate 3
  sample/DMSO: 18.8159
[1]; PopD-D7, 20 uM, biological replicate 1
  sample/DMSO: 64.3869
[1]; PopD-D7, 20 uM, biological replicate 2
  sample/DMSO: 82.347
[2]
  interaction with PfSTART1(WT): did not interact
